Experimental data as given in patent publication US11046686B2, “Thiadiazole IRAK4 compounds” (Gilead Sciences, Inc., priority 2018, dated 2021).

system: TNFα; assay: IRAK4 Monocyte TNFα Cell Based Assay; parameters: species or system human; conditions: Homo sapiens, Monocyte, human monocytes; second part of Table 2, compounds 33-343; unit inferred; read-out: EC50 MONO TNF HTRF
Method: IRAK4 Monocyte TNFα Cell Based Assay Procedure:
The cell suspension was then plated at a density of 5,000 cells/well onto black 384 well Greiner clear bottom plates. Plates were pre-spotted with test compounds and serially diluted in DMSO where 40 nL/well were delivered using the Echo 550 acoustic liquid dispenser (Labcyte®) for a final DMSO concentration of 0.1%. Plated cells were treated with compound for 1 hour at 37° C. Cells were then stimulated with 50 pg/ml of LPS (Sigma) excluding outside columns of plate used for unstimulated cell control wells. Cells were incubated for an additional 4 hours at 37° C. Cells were then spun out of the media and 5 μl of sample were taken and analyzed for total TNFα content using the TR-FRET Human TNFα detection system (CisBio). This system utilizes two labeled antibodies (cryptate and XL665) that bind to two different epitopes of the TNFα molecule and produce FRET signal proportional to the concentration of TNFα in the sample. Detection antibodies are mixed 50:50 and 5 μL were dispensed into each well. Plates were covered with clear seals and incubated at room temp overnight. […] Percent of control was calculated as follows: % Control=100×(Ratiosample−Ratio0% stimulation)/(Ratio100% Stimulation−Ratio0% Stimulation) where unstimulated cells (0% stimulation) were the negative control and stimulated cells (100% stimulation) were used as the positive control.

| Compound | EC50 |
| --- | --- |
| CC(C)Nc1cc(-c2ccc3cc(C#N)cnn23)ncc1-c1nnc([C@@H]2CC[C@H]2C(C)(C)O)s1 (racemic) [Example 88, 7-(5-(5-((1,2-trans)-2-(2-hydroxypropan-2-yl)cyclobutyl)-1,3,4-thiadiazol-2-yl)-4-(isopropylamino)pyridin-2-yl)pyrrolo[1,2-b]pyridazine-3-carbonitrile] | 27.1 nM |
| CC1(O)CCC(c2nnc(-c3cnc(-c4ccc5cc(C#N)cnn45)cc3NC3COC3)s2)CC1 (single isomer, unassigned) [Example 206, 7-(5-(5-(4-hydroxy-4-methylcyclohexyl)-1,3,4-thiadiazol-2-yl)-4-(oxetan-3-ylamino)pyridin-2-yl)pyrrolo[1,2-b]pyridazine-3-carbonitrile] | 13.9 nM |
| CC(=O)NC1CCN(c2nnc(-c3cnc(-c4ccc5cc(C#N)cnn45)cc3NC(C)C)s2)C[C@@H]1O (stereo in doubt) [Example 64, N-((3S,4R)-1-(5-(6-(3-cyanopyrrolo[1,2-b]pyridazin-7-yl)-4-(isopropylamino)pyridin-3-yl)-1,3,4-thiadiazol-2-yl)-3-hydroxypiperidin-4-yl)acetamide] | 6.9 nM |

same assay, conditions: human monocytes; second part of Table 2, compounds 33-343; unit inferred; read-out: EC50 MONO TNF HTRF

| Compound | EC50 |
| --- | --- |
| CC(=O)NC1CCC(F)(c2nnc(-c3cnc(-c4ccc5cc(C#N)cnn45)cc3NC3COC3)s2)CC1 (single isomer, unassigned) [Example 195, N-(4-(5-(6-(3-cyanopyrrolo[1,2-b]pyridazin-7-yl)-4-(oxetan-3-ylamino)pyridin-3-yl)-1,3,4-thiadiazol-2-yl)-4-fluorocyclohexy)acetamide] | 334 nM |
| CC(=O)NC1CCC(F)(c2nnc(-c3cnc(-c4ccc5cc(C#N)cnn45)cc3NC3COC3)s2)CC1 (single isomer, unassigned) [Example 196, N-(4-(5-(6-(3-cyanopyrrolo[1,2-b]pyridazin-7-yl)-4-(oxetan-3-ylamino)pyridin-3-yl)-1,3,4-thiadiazol-2-yl)-4-fluorocyclohexy)acetamide] | 107 nM |
| CC(=O)N1CCN(c2nnc(-c3cnc(-c4ccc5cc(C#N)cnn45)cc3NC(C)C)s2)CC1 [Compound 232, 7-(5-(5-(4-acetylpiperazin-l-yl)-1,3,4-thiadiazol-2-yl)-4-(isopropylamino)pyridin-2-yl)pyrrolo[1,2-b]pyridazine-3-carbonitrile] | 7.4 nM |
| CC(=O)N[C@@H]1[C@@H]2CN(c3nnc(-c4cnc(-c5ccc6cc(C#N)cnn56)cc4NC(C)C)s3)C[C@@H]21 [Compound 239, N-((1R,5S,6r)-3-(5-(6-(3-cyanopyrrolo[1,2-b]pyridazin-7-yl)-4-(isopropylamino)pyridin-3-yl)-1,3,4-thiadiazol-2-yl)-3-azabicyclo[3.1.0]hexan-6-yl)acetamide] | 4.9 nM |
| CC(=O)N[C@H]1[C@@H]2CN(c3nnc(-c4cnc(-c5ccc6cc(C#N)cnn56)cc4NC(C)C)s3)C[C@@H]21 [Compound 240, N-((1R,5S,6s)-3-(5-(6-(3-cyanopyrrolo[1,2-b]pyridazin-7-yl)-4-(isopropylamino)pyridin-3-yl)-1,3,4-thiadiazol-2-yl)-3-azabicyclo[3.1.0]hexan-6-yl)acetamide] | 8.9 nM |
| CC(=O)NC1CCC(c2nnc(-c3cnc(-c4ccc5cc(C#N)cnn45)cc3NC34CCC(O)(CC3)CC4)s2)CC1 (centres unmarked) [Compound 241, N-((1r,4r)-4-(5-(6-(3-cyanopyrrolo[1,2-b]pyridazin-7-yl)-4-((4-hydroxybicyclo[2.2.2]octan-1-yl)amino)pyridin-3-yl)-1,3,4-thiadiazol-2-yl)cyclohexyl)acetamide] | 4.8 nM |
| CC(=O)N[C@H]1CC[C@H](c2nnc(-c3cnc(-c4ccc5cc(C#N)cnn45)cc3N[C@H]3C[C@@](C)(O)C3)s2)CC1 [Compound 243, N-((1R,4r)-4-(5-(6-(3-cyanopyrrolo[1,2-b]pyridazin-7-yl)-4-(((1s,3S)-3-hydroxy-3-methylcyclobutyl)amino)pyridin-3-yl)-1,3,4-thiadiazol-2-yl)cyclohexyl)acetamide] | 6.4 nM |
| CC(=O)N[C@H]1CC[C@H](c2nnc(-c3cnc(-c4ccc5cc(C#N)cnn45)cc3N[C@H]3CCC[C@@H](O)C3)s2)CC1 [Compound 245, N-((1S,4r)-4-(5-(6-(3-cyanopyrrolo[1,2-b]pyridazin-7-yl)-4-(((1S,3R)-3-hydroxycyclohexyl)amino)pyridin-3-yl)-1,3,4-thiadiazol-2-yl)cyclohexyl)acetamide] | 3.2 nM |
| CC(=O)N[C@H]1CC[C@H](c2nnc(-c3cnc(-c4ccc5cc(C#N)cnn45)cc3NC3CCOCC3)s2)CC1 [Compound 255, N-((1r,4r)-4-(5-(6-(3-cyanopyrrolo[1,2-b]pyridazin-7-yl)-4-((tetrahydro-2H-pyran-4-yl)amino)pyridin-3-yl)-1,3,4-thiadiazol-2-yl)cyclohexyl)acetamide] | 5.1 nM |
| CC(=O)N1C2CC1CN(c1nnc(-c3cnc(-c4ccc5cc(C#N)cnn45)cc3NC(C)C)s1)C2 [Compound 258, 7-(5-(5-(6-acetyl-3,6-diazabicyclo[3.1.1]heptan-3-yl)-1,3,4-thiadiazo1-2-yl)-4-(isopropylamino)pyridin-2-yl)pyrrolo[1,2-b]pyridazine-3-carbonitrile] | 5.8 nM |
| CC(=O)N1CC2CCC(C1)N2c1nnc(-c2cnc(-c3ccc4cc(C#N)cnn34)cc2NC(C)C)s1 [Compound 260, 7-(5-(5-(3-acety1-3,8-diazabicyclo[3.2.1]octan-8-yl)-1,3,4-thiadiazol-2-yl)-4-(isopropylamino)pyridin-2-yl)pyrrolo[1,2-b]pyridazine-3-carbonitrile] | 15.8 nM |
| CC(=O)N1CC2CC(C1)N2c1nnc(-c2cnc(-c3ccc4cc(C#N)cnn34)cc2NC(C)C)s1 [Compound 261, 7-(5-(5-(3-acety1-3,6-diazabicyclo[3.1.1]heptan-6-yl)-1,3,4-thiadiazol-2-yl)-4-(isopropylamino)pyridin-2-yl)pyrrolo[1,2-b]pyridazine-3-carbonitrile] | 18.3 nM |
| CC(C)Nc1cc(-c2ccc3cc(C#N)cnn23)ncc1-c1nnc(N2CCS(=N)(=O)CC2)s1 [Compound 262, 7-(5-(5-(1-imino-1-oxido-116-thiomorpholino)-1,3,4-thiadiazo1-2-yl)-4-(isopropylamino)pyridin-2-yl)pyrrolo[1,2-b]pyridazine-3-carbonitrile] | 69.9 nM |
| CC(=O)N1C2CCC1CN(c1nnc(-c3cnc(-c4ccc5cc(C#N)cnn45)cc3NC3(C)COC3)s1)C2 [Compound 264] | 2.7 nM |
| CC(=O)N1C[C@H]2COC[C@@H](C1)N2c1nnc(-c2cnc(-c3ccc4cc(C#N)cnn34)cc2NC(C)C)s1 [Compound 266] | 3.2 nM |
| CC(=O)N[C@H]1CC[C@H](c2nnc(-c3cnc(-c4ccc5cc(C#N)cnn45)cc3NC3(C)CCOCC3)s2)CC1 [Compound 268, N-((1r,4r)-4-(5-(6-(3-cyanopyrrolo[1,2-b]pyridazin-7-yl)-4-((4-methyltetrahydro-2H-pyran-4-yl)amino)pyridin-3-yl)-1,3,4-thiadiazol-2-yl)cyclohexyl)acetamide] | 14.1 nM |
| CC(=O)N1[C@@H]2COC[C@H]1CN(c1nnc(-c3cnc(-c4ccc5cc(C#N)cnn45)cc3NC3CCOCC3)s1)C2 [Compound 269, 7-(5-(5-((1R,5S)-9-acety1-3-oxa-7,9-diazabicyclo[3.3.1]nonan-7-yl)-1,3,4-thiadiazol-2-yl)-4-((tetrahydro-2H-pyran-4-yl)amino)pyridin-2-yl)pyrrolo[1,2-b]pyridazine-3-carbonitrile] | 5.8 nM |
